Source: the NIST ThermoML archive (doi:10.1016/j.tca.2014.12.020)
± gives the expanded uncertainty stated by the source.

How the values were obtained:
[1] = Molar enthalpy of transition or fusion; settings: Crystal; DSC
[2] = molar heat capacity at constant pressure; settings: 101.33 kPa, Small sample (50 mg) DSC
[3] = Crystal; DTA

Row | SMILES | Molar enthalpy of transition or fusion [1] [kcal/mol] | molar heat capacity at constant pressure ([2]; 298.15 K, Crystal) [J/K/mol] | molar heat capacity at constant pressure ([2]; 338.15 K, Liquid) [J/K/mol] | Normal melting temperature [3] [°C] | molar heat capacity at constant pressure ([2]; 338.15 K, Crystal) [J/K/mol]
1 | CCCCCCCCCCCCCCCCCC(=O)O [octadecanoic acid] | 12.4 ± 0.359 | 517.75 ± 23 | 648.61 ± 28 | – | –
2 | CCCCCCCCCCCCCC(=O)O [tetradecanoic acid] | 10.5 ± 0.263 | 385.95 ± 16 | 509.27 ± 21 | 53.00 ± 5 | –
3 | CCCCCCCCCCCCOS(=O)(=O)[O-].[Na+] [sodium dodecyl sulfate] | – | 444.11 ± 20 | – | – | 553.69 ± 23
